Source: patent US9896435B2, “N-pyrrolidinyl,N′-pyrazolyl-urea, thiourea, guanidine and cyanoguanidine compounds as TrkA kinase inhibitors” (Array BioPharma Inc., priority 2012, dated 2018)

Legend:
Experiment in all cases: KinaseProfiler off-target kinase profiling
Type in all cases: biochemical
Conditions in all cases: 10 μM, ATP near Km
[1] = biological target: ALK4 (Homo sapiens (Human), UniProt P36896)
Outline: (§1)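 Single-point profiling, 10 μM, duplicates, ATP ~Km; output POC (mean of 2).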

[2] = biological target: ARK5 (Homo sapiens (Human), UniProt O60285)
Outline: as §1

[3] = biological target: CAMK2b (Homo sapiens (Human), UniProt Q13554)
Outline: as §1

[4] = biological target: CDK5/p25 (Homo sapiens (Human), UniProt Q00535)
Outline: as §1

[5] = biological target: CDK6/cyclinD3 (Homo sapiens (Human), UniProt Q00534)
Outline: as §1

[6] = biological target: CK2alpha2 (Homo sapiens (Human), UniProt P19784)
Outline: as §1

[7] = biological target: DAPK1 (Homo sapiens (Human), UniProt P53355)
Outline: as §1

[8] = biological target: ERK1 (Homo sapiens (Human), UniProt P27361)
Outline: as §1

[9] = biological target: EphB1 (Homo sapiens (Human), UniProt P54762)
Outline: as §1

[10] = biological target: FGFR2 (Homo sapiens (Human), UniProt P21802)
Outline: as §1

[11] = biological target: FGFR3 (Homo sapiens (Human), UniProt P22607)
Outline: as §1

[12] = biological target: Fer (Homo sapiens (Human), UniProt P16591)
Outline: as §1

[13] = biological target: IKKalpha (Homo sapiens (Human), UniProt O15111)
Outline: as §1

[14] = biological target: JAK2 (Homo sapiens (Human), UniProt O60674)
Outline: as §1

[15] = biological target: LIMK1 (Homo sapiens (Human), UniProt P53667)
Outline: as §1

[16] = biological target: Lck (Homo sapiens (Human), UniProt P06239)
Outline: as §1

[17] = biological target: Lyn (Homo sapiens (Human), UniProt P07948)
Outline: as §1

[18] = biological target: MAPKAP-K3 (Homo sapiens (Human), UniProt Q16644)
Outline: as §1

[19] = biological target: MEK1 (Homo sapiens (Human), UniProt Q02750)
Outline: as §1

[20] = biological target: MKK7 (Homo sapiens (Human), UniProt O14733)
Outline: as §1

[21] = biological target: MKNK2 (Homo sapiens (Human), UniProt Q9HBH9)
Outline: as §1

[22] = biological target: MST2 (Homo sapiens (Human), UniProt Q13188)
Outline: as §1

[23] = biological target: Mer (Homo sapiens (Human), UniProt Q12866)
Outline: as §1

[24] = biological target: NEK3 (Homo sapiens (Human), UniProt P51956)
Outline: as §1

[25] = biological target: PAK4 (Homo sapiens (Human), UniProt O96013)
Outline: as §1

[26] = biological target: PDK1 (Homo sapiens (Human), UniProt O15530)
Outline: as §1

[27] = biological target: PKCtheta (Homo sapiens (Human), UniProt Q04759)
Outline: as §1

[28] = biological target: PTK6 (Homo sapiens (Human), UniProt Q13882)
Outline: as §1

[29] = biological target: Pim-2 (Homo sapiens (Human), UniProt Q9P1W9)
Outline: as §1

[30] = biological target: ROCK-II (Homo sapiens (Human), UniProt O75116)
Outline: as §1

[31] = biological target: Rsk2 (Homo sapiens (Human), UniProt P51812)
Outline: as §1

[32] = biological target: SRPK1 (Homo sapiens (Human), UniProt Q96SB4)
Outline: as §1

[33] = biological target: TAK1 (Homo sapiens (Human), UniProt O43318)
Outline: as §1

[34] = biological target: TAO2 (Homo sapiens (Human), UniProt Q9UL54)
Outline: as §1

[35] = biological target: TBK1 (Homo sapiens (Human), UniProt Q9UHD2)
Outline: as §1

[36] = biological target: TSSK1 (Homo sapiens (Human), UniProt Q9BXA7)
Outline: as §1

[37] = biological target: ULK3 (Homo sapiens (Human), UniProt Q6PHR2)
Outline: as §1

[38] = biological target: VRK2 (Homo sapiens (Human), UniProt Q86Y07)
Outline: as §1

[39] = biological target: mTOR/FKBP12 (Homo sapiens (Human), UniProt P42345)
Outline: as §1

[40] = biological target: p70S6K (Homo sapiens (Human), UniProt P23443)
Outline: as §1

mTOR/FKBP12, sequence (P42345 1362-2549): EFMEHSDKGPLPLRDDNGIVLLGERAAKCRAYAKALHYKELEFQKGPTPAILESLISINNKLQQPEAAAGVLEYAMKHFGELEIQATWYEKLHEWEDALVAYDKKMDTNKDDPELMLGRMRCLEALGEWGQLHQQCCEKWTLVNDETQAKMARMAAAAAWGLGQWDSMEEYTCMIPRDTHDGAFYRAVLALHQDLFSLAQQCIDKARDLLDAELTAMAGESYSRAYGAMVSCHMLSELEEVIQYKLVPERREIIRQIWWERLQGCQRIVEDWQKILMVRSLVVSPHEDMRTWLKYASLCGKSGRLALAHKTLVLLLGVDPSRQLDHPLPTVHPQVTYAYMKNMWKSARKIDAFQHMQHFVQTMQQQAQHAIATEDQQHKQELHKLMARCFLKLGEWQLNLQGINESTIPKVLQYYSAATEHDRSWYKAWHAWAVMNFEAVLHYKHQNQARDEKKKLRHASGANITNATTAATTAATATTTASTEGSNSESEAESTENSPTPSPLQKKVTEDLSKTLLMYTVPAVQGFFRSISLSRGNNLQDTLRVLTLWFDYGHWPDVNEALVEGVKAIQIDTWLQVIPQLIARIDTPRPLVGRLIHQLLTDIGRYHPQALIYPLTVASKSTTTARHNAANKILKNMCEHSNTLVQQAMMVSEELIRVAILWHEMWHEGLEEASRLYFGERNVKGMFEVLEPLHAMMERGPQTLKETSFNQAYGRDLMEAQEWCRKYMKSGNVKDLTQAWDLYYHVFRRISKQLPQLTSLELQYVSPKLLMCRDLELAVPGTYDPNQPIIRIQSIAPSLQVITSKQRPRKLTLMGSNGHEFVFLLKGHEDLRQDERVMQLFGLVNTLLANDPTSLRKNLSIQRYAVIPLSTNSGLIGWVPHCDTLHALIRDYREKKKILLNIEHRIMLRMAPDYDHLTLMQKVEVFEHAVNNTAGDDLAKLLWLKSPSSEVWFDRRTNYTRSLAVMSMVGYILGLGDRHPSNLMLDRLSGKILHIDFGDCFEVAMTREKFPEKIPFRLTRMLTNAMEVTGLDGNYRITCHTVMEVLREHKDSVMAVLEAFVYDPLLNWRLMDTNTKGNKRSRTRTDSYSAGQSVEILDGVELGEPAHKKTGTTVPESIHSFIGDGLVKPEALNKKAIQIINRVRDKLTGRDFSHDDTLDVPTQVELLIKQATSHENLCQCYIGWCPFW
Lck, sequence (P06239 whole entry): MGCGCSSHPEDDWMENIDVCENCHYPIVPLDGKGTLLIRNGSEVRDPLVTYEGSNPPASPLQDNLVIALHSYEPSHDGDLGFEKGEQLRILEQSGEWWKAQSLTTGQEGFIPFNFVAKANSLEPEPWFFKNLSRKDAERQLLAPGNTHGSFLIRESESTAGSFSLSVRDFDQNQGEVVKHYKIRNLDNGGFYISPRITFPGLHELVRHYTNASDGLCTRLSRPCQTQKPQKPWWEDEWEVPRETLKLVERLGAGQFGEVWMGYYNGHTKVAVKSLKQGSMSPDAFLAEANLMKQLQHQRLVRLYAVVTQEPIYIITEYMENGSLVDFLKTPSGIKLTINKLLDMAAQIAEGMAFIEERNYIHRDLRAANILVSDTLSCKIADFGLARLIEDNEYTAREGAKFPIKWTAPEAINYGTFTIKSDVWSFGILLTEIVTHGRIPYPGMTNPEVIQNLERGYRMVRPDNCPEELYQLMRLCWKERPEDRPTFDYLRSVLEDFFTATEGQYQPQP
EphB1, sequence (P54762 18-984): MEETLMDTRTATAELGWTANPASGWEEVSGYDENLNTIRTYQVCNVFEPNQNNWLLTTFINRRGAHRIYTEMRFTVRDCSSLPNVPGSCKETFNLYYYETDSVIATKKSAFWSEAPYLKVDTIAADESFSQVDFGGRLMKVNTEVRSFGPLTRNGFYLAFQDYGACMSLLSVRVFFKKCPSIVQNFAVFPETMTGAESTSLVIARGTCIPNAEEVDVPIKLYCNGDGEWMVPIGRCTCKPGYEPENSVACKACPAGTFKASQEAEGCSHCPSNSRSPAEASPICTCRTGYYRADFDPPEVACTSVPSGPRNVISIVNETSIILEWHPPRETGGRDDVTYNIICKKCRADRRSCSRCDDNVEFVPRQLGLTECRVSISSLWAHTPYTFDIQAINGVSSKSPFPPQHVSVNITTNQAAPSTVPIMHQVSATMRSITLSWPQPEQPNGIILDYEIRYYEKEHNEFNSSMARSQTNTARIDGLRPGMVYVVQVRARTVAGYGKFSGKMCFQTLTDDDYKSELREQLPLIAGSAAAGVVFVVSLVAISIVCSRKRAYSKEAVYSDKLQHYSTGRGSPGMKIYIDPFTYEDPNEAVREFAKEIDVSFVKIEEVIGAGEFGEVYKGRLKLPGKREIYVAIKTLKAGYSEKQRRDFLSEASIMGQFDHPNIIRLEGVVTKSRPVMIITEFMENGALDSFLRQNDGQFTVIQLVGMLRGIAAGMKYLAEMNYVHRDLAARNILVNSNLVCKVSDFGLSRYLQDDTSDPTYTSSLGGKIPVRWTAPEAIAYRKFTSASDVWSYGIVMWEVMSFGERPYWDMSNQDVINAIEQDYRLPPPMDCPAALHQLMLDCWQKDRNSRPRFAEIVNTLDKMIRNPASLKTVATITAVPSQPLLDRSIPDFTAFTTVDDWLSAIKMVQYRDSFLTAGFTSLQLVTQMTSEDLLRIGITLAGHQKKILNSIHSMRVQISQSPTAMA
FGFR3, sequence (P22607 23-806): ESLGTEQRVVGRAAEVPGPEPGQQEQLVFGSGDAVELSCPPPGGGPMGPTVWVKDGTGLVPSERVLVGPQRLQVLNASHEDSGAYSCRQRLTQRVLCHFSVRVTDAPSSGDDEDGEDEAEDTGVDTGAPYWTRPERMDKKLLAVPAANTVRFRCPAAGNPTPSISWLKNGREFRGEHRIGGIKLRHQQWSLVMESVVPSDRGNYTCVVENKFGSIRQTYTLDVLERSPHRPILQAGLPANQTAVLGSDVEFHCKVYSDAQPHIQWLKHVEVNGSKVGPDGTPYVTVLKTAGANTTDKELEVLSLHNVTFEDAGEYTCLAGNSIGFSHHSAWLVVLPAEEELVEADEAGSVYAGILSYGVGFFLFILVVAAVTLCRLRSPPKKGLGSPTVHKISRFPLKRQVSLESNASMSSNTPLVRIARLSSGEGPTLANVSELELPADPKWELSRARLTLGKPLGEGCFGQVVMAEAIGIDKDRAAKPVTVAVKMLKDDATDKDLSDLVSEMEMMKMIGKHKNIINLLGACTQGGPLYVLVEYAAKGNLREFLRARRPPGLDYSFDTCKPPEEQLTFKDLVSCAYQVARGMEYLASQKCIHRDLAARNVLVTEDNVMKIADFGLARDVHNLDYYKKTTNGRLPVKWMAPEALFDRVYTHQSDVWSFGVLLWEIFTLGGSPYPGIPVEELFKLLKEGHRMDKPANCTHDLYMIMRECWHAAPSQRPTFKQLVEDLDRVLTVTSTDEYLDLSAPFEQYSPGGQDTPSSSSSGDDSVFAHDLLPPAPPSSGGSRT
MST2, sequence (Q13188 whole entry): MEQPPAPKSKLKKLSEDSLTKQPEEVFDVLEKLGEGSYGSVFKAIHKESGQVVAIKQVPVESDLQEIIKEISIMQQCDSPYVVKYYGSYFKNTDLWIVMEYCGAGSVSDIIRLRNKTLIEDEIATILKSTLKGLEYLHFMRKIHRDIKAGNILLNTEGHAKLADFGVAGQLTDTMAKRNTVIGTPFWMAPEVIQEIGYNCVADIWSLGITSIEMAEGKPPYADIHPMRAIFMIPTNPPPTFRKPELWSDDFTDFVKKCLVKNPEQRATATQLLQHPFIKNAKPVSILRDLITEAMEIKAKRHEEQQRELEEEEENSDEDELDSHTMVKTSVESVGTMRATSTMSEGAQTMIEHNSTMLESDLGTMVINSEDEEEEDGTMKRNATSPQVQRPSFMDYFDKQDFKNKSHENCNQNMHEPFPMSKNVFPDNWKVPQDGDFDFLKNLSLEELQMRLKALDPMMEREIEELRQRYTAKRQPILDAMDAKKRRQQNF
MKK7, sequence (O14733 whole entry): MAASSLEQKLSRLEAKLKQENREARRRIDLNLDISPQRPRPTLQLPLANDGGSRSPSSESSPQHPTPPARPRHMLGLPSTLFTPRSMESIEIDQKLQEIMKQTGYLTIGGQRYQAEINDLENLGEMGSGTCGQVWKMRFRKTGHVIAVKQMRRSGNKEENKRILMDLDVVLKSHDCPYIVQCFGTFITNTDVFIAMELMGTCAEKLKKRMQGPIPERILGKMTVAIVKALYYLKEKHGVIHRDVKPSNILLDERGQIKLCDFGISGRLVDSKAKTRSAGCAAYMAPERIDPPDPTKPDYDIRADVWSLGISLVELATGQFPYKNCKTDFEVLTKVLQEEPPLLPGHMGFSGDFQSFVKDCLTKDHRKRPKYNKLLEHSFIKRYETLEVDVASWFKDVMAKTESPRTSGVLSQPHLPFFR
ALK4, sequence (P36896 24-505): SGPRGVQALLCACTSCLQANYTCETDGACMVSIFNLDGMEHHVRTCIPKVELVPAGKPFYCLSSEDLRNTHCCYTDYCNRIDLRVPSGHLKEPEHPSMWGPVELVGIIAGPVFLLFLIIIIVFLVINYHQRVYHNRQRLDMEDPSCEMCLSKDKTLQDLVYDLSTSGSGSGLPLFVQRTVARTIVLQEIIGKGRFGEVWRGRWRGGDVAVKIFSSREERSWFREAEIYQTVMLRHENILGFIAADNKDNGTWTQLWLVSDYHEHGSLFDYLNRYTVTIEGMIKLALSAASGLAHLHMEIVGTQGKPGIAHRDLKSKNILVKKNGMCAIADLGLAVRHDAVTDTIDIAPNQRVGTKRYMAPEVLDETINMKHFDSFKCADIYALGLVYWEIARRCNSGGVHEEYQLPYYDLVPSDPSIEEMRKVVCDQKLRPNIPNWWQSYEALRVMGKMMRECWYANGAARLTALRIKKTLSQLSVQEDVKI

| SMILES | Avg POC [1] | Avg POC [2] | Avg POC [3] | Avg POC [4] | Avg POC [5] | Avg POC [6] | Avg POC [7] | Avg POC [8] | Avg POC [9] | Avg POC [10] | Avg POC [11] | Avg POC [12] | Avg POC [13] | Avg POC [14] | Avg POC [15] | Avg POC [16] | Avg POC [17] | Avg POC [18] | Avg POC [19] | Avg POC [20] | further results |
| --- | --- | --- | --- | --- | --- | --- | --- | --- | --- | --- | --- | --- | --- | --- | --- | --- | --- | --- | --- | --- | --- |
| COCCN1C[C@@H](NC(=O)Nc2c(C)c(-c3ccnc(C)c3)nn2-c2ccccc2)[C@H](c2ccc(F)c(F)c2)C1 [Example 2, 1-((3S,4R)-4-(3,4-difluorophenyl)-1-(2-methoxyethyl)pyrrolidin-3-yl)-3-(4-methyl-3-(2-methylpyridin-4-yl)-1-phenyl-1H-pyrazol-5-yl)urea] | 112.5 POC | 89 POC | 90.5 POC | 104 POC | 96 POC | 119.5 POC | 97 POC | 103 POC | 93.5 POC | 91.5 POC | 111.5 POC | 105 POC | 121 POC | 112.5 POC | 100 POC | 113 POC | 112 POC | 101.5 POC | 100.5 POC | 97.5 POC | Avg POC [21]: 101 POC; Avg POC [22]: 99.5 POC; Avg POC [23]: 90.5 POC; Avg POC [24]: 97 POC; Avg POC [25]: 103.5 POC; Avg POC [26]: 94.5 POC; Avg POC [27]: 98.5 POC; Avg POC [28]: 101 POC; Avg POC [29]: 86.5 POC; Avg POC [30]: 102.5 POC; Avg POC [31]: 106 POC; Avg POC [32]: 97.5 POC; Avg POC [33]: 93 POC; Avg POC [34]: 97 POC; Avg POC [35]: 116.5 POC; Avg POC [36]: 105 POC; Avg POC [37]: 100 POC; Avg POC [38]: 101.5 POC; Avg POC [39]: 108.5 POC; Avg POC [40]: 105.5 POC |
| COCCN1C[C@@H](NC(=O)Nc2c(C)c(-c3cnc(C)nc3)nn2-c2ccccc2)[C@H](c2cc(F)cc(F)c2)C1 [Example 14, 1-((3S,4R)-4-(3,5-difluorophenyl)-1-(2-methoxyethyl)pyrrolidin-3-yl)-3-(4-methyl-3-(2-methylpyrimidin-5-yl)-1-phenyl-1H-pyrazol-5-yl)urea] | 115 POC | 85 POC | 93 POC | 99 POC | 99.5 POC | 120 POC | 99.5 POC | 78.5 POC | 97.5 POC | 103 POC | 133.5 POC | 100.5 POC | 118.5 POC | 109 POC | 98 POC | 112.5 POC | 105.5 POC | 105.5 POC | 91 POC | 111 POC | Avg POC [21]: 101 POC; Avg POC [22]: 101 POC; Avg POC [23]: 78 POC; Avg POC [24]: 101 POC; Avg POC [25]: 100.5 POC; Avg POC [26]: 101.5 POC; Avg POC [27]: 98 POC; Avg POC [28]: 108.5 POC; Avg POC [29]: 103.5 POC; Avg POC [30]: 93.5 POC; Avg POC [31]: 99.5 POC; Avg POC [32]: 109.5 POC; Avg POC [33]: 88 POC; Avg POC [34]: 102.5 POC; Avg POC [35]: 103 POC; Avg POC [36]: 104.5 POC; Avg POC [37]: 98 POC; Avg POC [38]: 109.5 POC; Avg POC [39]: 113 POC; Avg POC [40]: 98 POC |
